Assay [1] concerns cholesterol biosynthesis in HepG2 cells. The assay can be described thus: HepG2 cell culture model - 14C-acetate incorporation assay (cholesterol synthesis). In kind it is cell-based. To be noted: 3-4 hours incubation, 2-14C-acetate incorporation into digitonin-precipitable sterols, vs. vehicle controls; for inhibition at 10 µM: Homo sapiens, read-out: Sterol Biosynthesis % Inhibition 10µM. As to the method:
HepG2 Cell Culture Model - 14C-Acetate Incorporation Assay
After 16 hours in LDS containing media, test compounds were added in dimethylsulfoxide vehicle (0.5% v/v final conc.) for an incubation period of 3-4 hours. Cholesterol synthesis was then directly determined by 2-14C-acetate (1.8 mCi/mmol, 0.5 µCi/ml) incorporation for 30 to 60 minutes (previously shown to be time-linear) into total digitonin-precipitable sterols. […] Percent inhibition was calculated from the average of duplicates vs. triplicate vehicle controls conducted simultaneously.

The subject of the next assay is HMG-CoA reductase. The assay can be described thus: HepG2 cell culture model - HMG-CoA reductase suppression assay. In kind it is cell-based. The conditions noted are these: HepG2 cells, 4 hours of incubation at 37°, decrease in specific activity vs. vehicle controls. As to the method: HepG2 Cell Culture Model - HMG-CoA Reductase Suppression Assay
HMG-CoA reductase suppression in HepG2 cells was conducted by growing cells in RPMT-1640 plus 10% FBS on 100 mm plates, and when cells reached approximately 75% confluency, inducing with LDS (as described above) for 16 hours prior to assays. Compounds were added using dimethylsulfoxide vehicle (0.5% v/v, final) and after 4 hours of incubation at 37°, cells were harvested by scraping. Cell pellets were rinsed and lysed by sonication in 1.7 ml cold 50 mM imidazole-HCl, pH 7.2, 50 mM NaCl, 10 mM EDTA, 10 mM EGTA, 5mM DTT, and 40 µM leupeptin). Lysates were centrifuged at 150 x g and the supernatant was centrifuged at 100,000 x g in a Beckman airfuge to isolate the post-nuclear total membrane fraction. The membranes were resuspended in 50 mM imidazole-HCl, pH 7.2, 250 mM NaCl, 5 mM DTT, and 20 µM leupeptin and used for the assay of HMG-CoA reductase activity by the radiochemical procedure as described previously by Parker et al., J. Biol. Chem., 264: 4877-4887, (1989). Values were normalized for protein content by the Lowry method as cited previously (ibid). HMG-CoA reductase percent suppression was calculated as the decrease in specific activity of HMG-CoA reductase for treated cells vs. controls receiving vehicle. Averages of duplicate cell determinations assayed in duplicate were taken.

The term inhibition denotes the change of the read-out against control, counted positive when it falls. For the molecule `CC(C)=CCC/C(C)=C/CC/C(C)=C/CCCOc1ccc(O)c(C)c1C` [Example 11, 2,3-Dimethyl-4-[(5,9,13-Trimethyl-4(E), 8(E), 12-tetradecatrienyl)oxy]phenol], in assay [1], the inhibition at 10 µM was 64%. Moreover, the “HMG-CoA Reductase Suppression % 10µM” value with HMG-CoA reductase worked out at 53%. `CC(C)=CCC/C(C)=C/CC/C(C)=C/CCCOc1cccc(O)c1` [Example 7, 3-[(5,9,13-Trimethyl-4(E), 8(E),12-tetradecatrienyl)oxy]phenol]: in assay [1], the inhibition at 10 µM came to 38%.

Turning to `CC(C)=CCC/C(C)=C/CC/C(C)=C/CCCOc1ccc(S(N)(=O)=O)cc1` [Example 28, 4-[(5,9,13-Trimethyl-4(E), 8(E),12-Tetradecatrienyl)oxy] benzenesulfonamide], the inhibition at 10 µM in assay [1] is 58%. Consider `CC(C)=CCC/C(C)=C/CC/C(C)=C/CCOc1ccc(O)c(C)c1C` [Example 10, 2,3-Dimethyl-4-[(4,8,12-Trimethyl-3(E),7(E), 11-tridecatrienyl)oxy]phenol], for which the inhibition at 10 µM in assay [1] turned out to be 58%. Moreover, the “HMG-CoA Reductase Suppression % 10µM” value in the assay on HMG-CoA reductase is 38%.

As for `CC(C)=CCC/C(C)=C/CC/C(C)=C/CCCOc1ccc(C(N)=O)cc1` [Example 23, 4-[(5,9,13-Trimethyl-4(E),8(E),12-tetradecatrienyl)oxy]benzamide], the inhibition at 10 µM in assay [1] was found to be 42%.

For `CC(C)=CCC/C(C)=C/CC/C(C)=C/CCCS(=O)(=O)c1ccc(O)cc1` [Example 32, 4-[(5,9,13-trimethyl-4(E),8(E),12-tetradecatrienyl)sulfonyl]phenol], the inhibition at 10 µM in assay [1] is 38%.

On to `CC(C)=CCC/C(C)=C/CC/C(C)=C/CCCOc1c(C)cc(O)c(C)c1C` [Example 15, 2,3,5-Trimethyl-4-[(5,9,13-Trimethyl-4(E),8(E), 12-tetradecatrienyl)oxy] phenol], for which the inhibition at 10 µM in assay [1] is 48%. As for `CC(C)=CCC/C(C)=C/CC/C(C)=C/CCCSc1ccc(O)cc1` [Example 30, 4-[(5,9,13-Trimethyl-4(E), 8(E),12-tetradecatrienyl)thio]phenol], in assay [1], the inhibition at 10 µM came to 68%. Moreover, the “HMG-CoA Reductase Suppression % 10µM” value with HMG-CoA reductase is recorded as 29%.

For the molecule “3,5-Dimethoxy-4-[(5,9,13-Trimethyl-4(E), 8(E), 12-tetradecatrienyl)oxy]phenol [Example 16]”, the “Sterol Biosynthesis % Inhibition 10µM” value in assay [1] is 66%. For `CC(C)=CCC/C(C)=C/CC/C(C)=C/CCC(C)(C)Oc1ccc(O)cc1` [Example 39, 4-[(1,1,5,9,13-Pentamethyl-4(E), 8(E), 12-tetradecatrienyl)oxy]phenol hydrate], in assay [1], the inhibition at 10 µM came out at 37%. As for `CC(C)=CCC/C(C)=C/CC/C(C)=C/CCCOc1ccc(O)cc1` [Example 8, 4-[(5,9,13-Trimethyl-4(E), 8(E),12-tetradecatrienyl)oxy]phenol], the inhibition at 10 µM in assay [1] worked out at 71%. Besides, the “HMG-CoA Reductase Suppression % 10µM” value with HMG-CoA reductase turned out to be 29%. Take `CC(C)=CCC/C(C)=C/CC/C(C)=C/CCCOc1ccc(B2OB(c3ccc(OCCC/C=C(\C)CC/C=C(\C)CCC=C(C)C)cc3)OB(c3ccc(OCCC/C=C(\C)CC/C=C(\C)CCC=C(C)C)cc3)O2)cc1` [Example 29, 2,4,6-Tris-[4-[(5,9,13-Trimethyl-4(E), 8(E),12-tetradecatrienyl)oxy]phenyl]boroxin]: the inhibition at 10 µM in assay [1] came out at 99%. With `CC(C)=CCC/C(C)=C/CC/C(C)=C/CCCOc1c(C)cc(OC(N)=O)cc1C` [Example 14, 3,5-Dimethyl-4-[(5,9,13-Trimethyl-4(E), 8(E), 12-tetradecatrienyl)oxy]phenyl carbamate], the inhibition at 10 µM in assay [1] was 65%. Further, the “HMG-CoA Reductase Suppression % 10µM” value in the assay on HMG-CoA reductase was 21%. Regarding `CC(C)=CCC/C(C)=C/CC/C(C)=C/CCCOc1ccc(O)c(CCO)c1` [Example 18, 2-Hydroxy-5-[(5,9,13-Trimethyl-4(E), 8(E), 12-tetradecatrienyl)oxy]benzene ethanol], the inhibition at 10 µM in assay [1] came to 64%. “4-[2-(5,9,13)-Trimethyl-4(E), 8(E), 12-tetradecatrienyl)-1,3-dithian-2-yl]phenol [Example 34]”: in assay [1], the “Sterol Biosynthesis % Inhibition 10µM” value is reported as 43%. With `CC(C)=CCC/C(C)=C/CC/C(C)=C/CCCOc1ccccc1` [Example 5, (5,9,13-Trimethyl-4(E), 8(E),12-tetradecatrienyl)oxy benzene], in assay [1], the inhibition at 10 µM worked out at 12%. The same measure, in the same setting: next, `CC(C)=CCC/C(C)=C/CC/C(C)=C/CCCN(C(=O)OC(C)(C)C)c1ccc(O)cc1` [Example 37, 1,1-Dimethylethyl-(4-Hydroxyphenyl)-(5,9,13-Trimethyl-4(E), 8(E), 12-tetradecatrienyl) carbamate]: 79%.

With `CC(C)=CCC/C(C)=C/CC/C(C)=C/CCCNc1ccc(O)cc1` [Example 36, 4-[(5,9,13-Trimethyl-4(E), 8(E),12-tetradecatrienyl)amino]phenol], in assay [1], the inhibition at 10 µM was determined as 43%.

For the molecule `CC(C)=CCC/C(C)=C/CC/C(C)=C/CCC[S+]([O-])c1ccc(O)cc1` (stereo not drawn) [Example 31, 4-[(5,9,13-trimethyl-4(E),8(E),12-tetradecatrienyl)sulfinyl]phenol], the inhibition at 10 µM in assay [1] worked out at 47%.

For the molecule `CC(C)=CCC/C(C)=C/CC/C(C)=C/CCCOc1cccc(CO)c1` [Example 22, 3-[(5,9,13-Trimethyl-4(E), 8(E),12-Tetradecatrienyl)oxy]benzenemethanol], in assay [1], the inhibition at 10 µM was found to be 73%. As to “2-Hydroxy-4,6-Dimethyl-5-[(5,9,13-Trimethyl-4(E), 8(E), 12-Tetradecatrienyl)oxy]-1,3-Benzenedimethanol [Example 17]”, the “Sterol Biosynthesis % Inhibition 10µM” value in assay [1] stood at 72%.

As for `CC(C)=CCC/C(C)=C/CC/C(C)=C/CCCOc1c(C)cc(N)cc1C` [Example 26, 3,5-Dimethyl-4-[(5,9,13-Trimethyl-4(E), 8(E),12-tetradecatrienyl)oxy] aniline], in assay [1], the inhibition at 10 µM stood at 51%. Consider `CC(C)=CCCC(C)=CCCC(C)=CCCCOc1c(C)cc(O)cc1C` [Example 13, 3,5-Dimethyl-4-[(5,9,13-Trimethyl-4,8, 12-tetradecatrienyl)oxy]phenol], for which the inhibition at 10 µM in assay [1] stood at 70%. Also, the “HMG-CoA Reductase Suppression % 10µM” value with HMG-CoA reductase was found to be 45%. As for “1-(4-Hydroxyphenyl)-6,10,14-Trimethyl-5(E), 9(E), 13-Pentadecatrien-1- One [Example 35]”, the “Sterol Biosynthesis % Inhibition 10µM” value in assay [1] was determined as 78%. As for `COC(=O)Nc1cc(C)c(OCCC/C=C(\C)CC/C=C(\C)CCC=C(C)C)c(C)c1` [Example 27, N-[[3,5-Dimethyl-4-[(5,9,13-Trimethyl-4(E), 8(E), 12-tetradecatrienyl)oxy]]phenyl]methyl carbamate], in assay [1], the inhibition at 10 µM amounted to 47%. On the same count and under the same terms, next, `CC(=O)c1cc(O)ccc1OCCC/C=C(\C)CC/C=C(\C)CCC=C(C)C` [Example 20, 1-[5-Hydroxy-2-(5,9,13-Trimethyl-4(E), 8(E),12-tetradecatrienyloxy)phenyl]ethanone]: 69%. Same read-out and setting: next, `CC(C)=CCC/C(C)=C/CC/C(C)=C/CCCOc1ccc(N)cc1` [Example 24, 4-[(5,9,13-Trimethyl-4(E), 8(E),12-tetradecatrienyl)oxy]aniline]: 65%. Take `CC(C)=CCC/C(C)=C/CC/C(C)=C/CCCCc1ccc(O)cc1` [Example 33, 4-[6,10,14-Trimethyl-5(E), 9(E), 13-Pentadecatrienyl]phenol]: the inhibition at 10 µM in assay [1] was 50%. Consider “4-[(5,9,13-Trimethyl-4(E), 8(E),12-tetradecatrienyl)oxy]benzenemethanol [Example 21]”, for which, in assay [1], the “Sterol Biosynthesis % Inhibition 10µM” value was determined as 64%. Moreover, in the assay with HMG-CoA reductase, the “HMG-CoA Reductase Suppression % 10µM” value amounted to 9%. Regarding `CC(C)=CCC/C(C)=C/CC/C(C)=C/CCCOc1c(F)c(F)c(O)c(F)c1F` [Example 19, 2,3,5,6-Tetrafluoro-4-[(5,9,13-Trimethyl-4(E), 8(E)-,12-tetradecatrienyl)oxy]phenol], the inhibition at 10 µM in assay [1] was 55%. Same read-out and setting: with `CC(C)=CCC/C(C)=C/CC/C(C)=C/CCCOc1ccccc1O` [Example 6, 2-[(5,9,13-Trimethyl-4(E), 8(E),12-tetradecatrienyl)oxy]phenol] the figure was 10%; with `CC(C)=CCC/C(C)=C/CC/C(C)=C/COc1ccc(O)c(C)c1C` [Example 9, 2,3-Dimethyl-4-[(3,7,11-Trimethyl-2(E), 6(E), 10-dodecatrienyl)oxy]phenol], 36%.

These data come from patent publication EP0571928A1, “Acyclic Tocotrienol analogs in the treatment of hypercholesterolemia and hyperlipidemia” (Bristol-Myers Squibb Company, priority 1992, dated 1993).
